{
  "source": "patent US6517836B1",
  "about": "“Nitrophenylaziridine compounds and their use as prodrugs” (Auckland Uniservices Limited, priority 1998, dated 2003)",
  "key": {"[1]": {"tested_on": "Chinese hamster fibroblast NR− line (T78-1), V79/4 transfected with an empty shuttle vector", "assay": "Cytotoxicity, 18 h drug exposure, V79 NR− line (T78-1)", "type": "cell-based", "conditions": "Cricetulus griseus, read-out: V-79 NR− IC50", "source_text": "(§1) The Chinese hamster fibroblast NR− line (T78-1) is a V79/4 Chinese hamster fibroblast transfected with an empty shuttle vector, while the NR+ line (T79-A3) is the corresponding NR transfectant. The human colon carcinoma NR− line (WIDR) is wild-type, while the NR+ line (WC14 10) is the corresponding NR transfectant. The human ovarian carcinoma NR− line (SKOV3) is wild-type, while the NR+ line (SC3.2) is the corresponding NR transfectant. EMT6 is a mouse mammary carcinoma line, and EN2A is the NR-transformed counterpart."}, "[2]": {"tested_on": "Chinese hamster fibroblast NR+ line (T79-A3), NR transfectant", "assay": "Cytotoxicity, 18 h drug exposure, V79 NR+ line (T79-A3)", "type": "cell-based", "conditions": "for IC50: Cricetulus griseus, Fibroblast, read-out: V-79 NR+ IC50", "source_text": "as §1"}, "[3]": {"tested_on": "human colon carcinoma NR− line (WIDR), wild-type", "assay": "Cytotoxicity, 18 h drug exposure, WiDr NR− line", "type": "cell-based", "conditions": "Homo sapiens, read-out: WiDr NR− IC50", "source_text": "as §1"}, "[4]": {"tested_on": "human colon carcinoma NR+ line (WC14 10), NR transfectant", "assay": "Cytotoxicity, 18 h drug exposure, WiDr NR+ line (WC14 10)", "type": "cell-based", "conditions": "for IC50: Homo sapiens, WiDr, read-out: WiDr NR+ IC50", "source_text": "as §1"}, "[5]": {"tested_on": "human ovarian carcinoma NR− line (SKOV3), wild-type", "assay": "Cytotoxicity, 18 h drug exposure, SKOV3 NR− line", "type": "cell-based", "conditions": "Homo sapiens, read-out: SKOV NR− IC50", "source_text": "as §1"}, "[6]": {"tested_on": "human ovarian carcinoma NR+ line (SC3.2), NR transfectant", "assay": "Cytotoxicity, 18 h drug exposure, SKOV NR+ line (SC3.2)", "type": "cell-based", "conditions": "for IC50: Homo sapiens, read-out: SKOV NR+ IC50", "source_text": "as §1"}, "[7]": {"tested_on": "EMT6 mouse mammary carcinoma line", "assay": "Cytotoxicity, 18 h drug exposure, EMT6 NR− line", "type": "cell-based", "conditions": "Mus musculus, read-out: EMT6 NR− IC50", "source_text": "as §1"}, "[8]": {"tested_on": "EN2A, NR-transformed counterpart of EMT6", "assay": "Cytotoxicity, 18 h drug exposure, EMT6 NR+ line (EN2A)", "type": "cell-based, mouse", "conditions": "for IC50: Mus musculus, read-out: EMT6 NR+ IC50", "source_text": "as §1"}},
  "note": "Like-named read-outs stand apart in the source and are kept apart here.",
  "data": [
    {"smiles": "NC(=O)c1cc([N+](=O)[O-])c(Cl)cc1N1CC1", "values": [
      {"measurement": "melting point", "value": 155, "unit": "°C"}
    ]},
    {"smiles": "NC(=O)c1cc([N+](=O)[O-])c(N2CC2)c([N+](=O)[O-])c1", "note": "[Compound 19, 4-(Aziridin-1-yl)-3,5-dinitrobenzamide]", "values": [
      {"measurement": "IC50", "setting": "[1]; T78-1 cells, 18 h drug exposure", "value": "> 20", "unit": "µM"},
      {"measurement": "IC50", "setting": "[2]; T79-A3 cells, 18 h drug exposure", "value": "> 20", "unit": "µM"},
      {"measurement": "IC50", "setting": "[3]; WIDR cells, 18 h drug exposure", "value": "> 20", "unit": "µM"},
      {"measurement": "IC50", "setting": "[4]; WC14 10 cells, 18 h drug exposure", "value": "> 20", "unit": "µM"},
      {"measurement": "IC50", "setting": "[5]; SK-OV-3, SKOV3 cells, 18 h drug exposure", "value": "> 20", "unit": "µM"},
      {"measurement": "IC50", "setting": "[6]; SC3.2 cells, 18 h drug exposure", "value": "> 20", "unit": "µM"},
      {"measurement": "IC50", "setting": "[7]; EMT6 cells, 18 h drug exposure", "value": "> 20", "unit": "µM"},
      {"measurement": "IC50", "setting": "[8]; EMT6, EN2A cells, 18 h drug exposure", "value": "> 20", "unit": "µM"},
      {"measurement": "melting point", "value": "228 to 231", "unit": "°C"}
    ]},
    {"smiles": "NC(=O)c1ccc(Cl)c([N+](=O)[O-])c1N1CC1", "values": [
      {"measurement": "melting point", "value": 216, "unit": "°C"}
    ]},
    {"smiles": "NC(=O)c1cc(N2CC2)c([N+](=O)[O-])cc1[N+](=O)[O-]", "note": "[CB1954, 5-(aziridin-1-yl)-2,4-dinitrobenzamide, reference compound]", "values": [
      {"measurement": "IC50", "setting": "[1]; T78-1, 18 h", "value": 395, "unit": "µM"},
      {"measurement": "IC50", "setting": "[2]; 18 h", "value": 0.3, "unit": "µM"},
      {"measurement": "V-79 ratio of IC50s", "setting": "[2]; T78-1 vs T79-A3, inter-experiment average", "value": 1200},
      {"measurement": "IC50", "setting": "[3]; WiDr, 18 h", "value": 56, "unit": "µM"},
      {"measurement": "IC50", "setting": "[4]; 18 h", "value": 1.2, "unit": "µM"},
      {"measurement": "WiDr ratio of IC50s", "setting": "[4]; WIDR vs WC14 10, inter-experiment average", "value": 51},
      {"measurement": "IC50", "setting": "[5]; SK-OV-3, 18 h", "value": 182, "unit": "µM"},
      {"measurement": "IC50", "setting": "[6]; 18 h", "value": 0.58, "unit": "µM"},
      {"measurement": "SKOV ratio of IC50s", "setting": "[6]; SKOV3 vs SC3.2, inter-experiment average", "value": 357},
      {"measurement": "IC50", "setting": "[7]; EMT6, 18 h", "value": 90, "unit": "µM"},
      {"measurement": "EMT6 ratio of IC50s", "setting": "[8]; EMT6 vs EN2A, inter-experiment average", "value": 1100},
      {"measurement": "IC50", "setting": "[8]; EMT6, 18 h", "value": 0.08, "unit": "µM"}
    ]}
  ]
}
